Measured values taken from ChEMBL document CHEMBL3885881, “DrugMatrix”.

Organism: Rattus norvegicus
Test: DrugMatrix - Regimen: Daily Repeat
Type: toxicity, organism-based, Sprague-Dawley
Set-up: regimen Daily Repeat, gender Male, age 6-8 weeks
Settings: in vivo, po, route oral GAVAGE, vehicle .5 % CMC; for ABSOLUTE BASOPHIL / ABSOLUTE EOSINOPHIL / ABSOLUTE LYMPHOCYTE / ABSOLUTE MONOCYTE / ABSOLUTE SEGMENTED NEUTROPHIL / BASOPHIL / EOSINOPHIL / ERYTHROCYTE COUNT / HEMATOCRIT / HEMOGLOBIN / LEUKOCYTE COUNT / LYMPHOCYTE / MEAN CORPUSCULAR HEMOGLOBIN / MEAN CORPUSCULAR HEMOGLOBIN CONCENTRATION / MEAN CORPUSCULAR VOLUME / MONOCYTE / NEUTROPHIL / NUCLEATED RED BLOOD CELLS / PLATELET COUNT: tissue Blood; for ALANINE AMINOTRANSFERASE / ALBUMIN / ALKALINE PHOSPHATASE / ASPARTATE AMINOTRANSFERASE / BLOOD UREA NITROGEN / CARBON DIOXIDE / CHLORIDE / CHOLESTEROL / CREATINE PHOSPHOKINASE / CREATININE / GLUCOSE / LACTATE DEHYDROGENASE / LIPASE / PHOSPHORUS / POTASSIUM / SODIUM / TOTAL BILIRUBIN / TOTAL PROTEIN / URIC ACID: tissue Plasma
[1] = 0 mg/kg, 72 h, dose level Control, time 3 day
[2] = 0 mg/kg, 120 h, dose level Control, time 5 day
[3] = 100 mg/kg, 72 h, dose level Low, time 3 day

Compound: CO[C@H]1/C=C/O[C@@]2(C)Oc3c(C)c(O)c4c(c3C2=O)C2=NC3(CCN(CC(C)C)CC3)NC2=C(NC(=O)/C(C)=C\C=C\[C@H](C)[C@H](O)[C@@H](C)[C@@H](O)[C@@H](C)[C@H](OC(C)=O)[C@@H]1C)C4=O [RIFABUTIN]
- ABSOLUTE BASOPHIL [1]: 0 CELLS/uL
- ABSOLUTE EOSINOPHIL [1]: 0 CELLS/uL
- ABSOLUTE LYMPHOCYTE [1]: 12269.67 CELLS/uL
- ABSOLUTE MONOCYTE [1]: 160.33 CELLS/uL
- ABSOLUTE SEGMENTED NEUTROPHIL [1]: 970 CELLS/uL
- BASOPHIL [1]: 0%
- EOSINOPHIL [1]: 0%
- ERYTHROCYTE COUNT [1]: 5.76 x10E6/uL
- HEMATOCRIT [1]: 36.57%
- HEMOGLOBIN [1]: 14.22 G/DL
- LEUKOCYTE COUNT [1]: 13.4 x10E3/uL
- LYMPHOCYTE [1]: 91.67%
- MEAN CORPUSCULAR HEMOGLOBIN [1]: 24.67 pg
- MEAN CORPUSCULAR HEMOGLOBIN CONCENTRATION [1]: 38.85 G/DL
- MEAN CORPUSCULAR VOLUME [1]: 63.52 fL
- MONOCYTE [1]: 1.17%
- NEUTROPHIL [1]: 7.17%
- NUCLEATED RED BLOOD CELLS [1]: 0.33 /100WBC
- PLATELET COUNT [1]: 1250.83 x10E3/uL
- ALANINE AMINOTRANSFERASE [1]: 49.17 u/L
- ALBUMIN [1]: 4.33 G/DL
- ALKALINE PHOSPHATASE [1]: 378.5 u/L
- ASPARTATE AMINOTRANSFERASE [1]: 82.17 u/L
- BLOOD UREA NITROGEN [1]: 15 mg/dL
- CARBON DIOXIDE [1]: 34.33 mmol/L
- CHLORIDE [1]: 99.17 MEQ/L
- CHOLESTEROL [1]: 71.17 mg/dL
- CREATINE PHOSPHOKINASE [1]: 258.67 u/L
- CREATININE [1]: 0.18 mg/dL
- GLUCOSE [1]: 142.67 mg/dL
- LACTATE DEHYDROGENASE [1]: 154.33 u/L
- LIPASE [1]: 9 u/L
- PHOSPHORUS [1]: 11.67 mg/dL
- POTASSIUM [1]: 7.13 MEQ/L
- SODIUM [1]: 142.22 MEQ/L
- TOTAL BILIRUBIN [1]: 0.18 mg/dL
- TOTAL PROTEIN [1]: 5.77 G/DL
- URIC ACID [1]: 1.55 mg/dL
- ABSOLUTE BASOPHIL [2]: 0 CELLS/uL
- ABSOLUTE EOSINOPHIL [2]: 23.33 CELLS/uL
- ABSOLUTE LYMPHOCYTE [2]: 14943.67 CELLS/uL
- ABSOLUTE MONOCYTE [2]: 32 CELLS/uL
- ABSOLUTE SEGMENTED NEUTROPHIL [2]: 1084.33 CELLS/uL
- BASOPHIL [2]: 0%
- EOSINOPHIL [2]: 0.17%
- ERYTHROCYTE COUNT [2]: 5.71 x10E6/uL
- HEMATOCRIT [2]: 35.28%
- HEMOGLOBIN [2]: 14.27 G/DL
- LEUKOCYTE COUNT [2]: 16.08 x10E3/uL
- LYMPHOCYTE [2]: 93%
- MEAN CORPUSCULAR HEMOGLOBIN [2]: 25.02 pg
- MEAN CORPUSCULAR HEMOGLOBIN CONCENTRATION [2]: 40.43 G/DL
- MEAN CORPUSCULAR VOLUME [2]: 61.82 fL
- MONOCYTE [2]: 0.17%
- NEUTROPHIL [2]: 6.67%
- NUCLEATED RED BLOOD CELLS [2]: 0.33 /100WBC
- PLATELET COUNT [2]: 1274 x10E3/uL
- ALANINE AMINOTRANSFERASE [2]: 54.17 u/L
- ALBUMIN [2]: 4.22 G/DL
- ALKALINE PHOSPHATASE [2]: 373.17 u/L
- ASPARTATE AMINOTRANSFERASE [2]: 81.83 u/L
- BLOOD UREA NITROGEN [2]: 16.67 mg/dL
- CARBON DIOXIDE [2]: 30.33 mmol/L
- CHLORIDE [2]: 99 MEQ/L
- CHOLESTEROL [2]: 71 mg/dL
- CREATINE PHOSPHOKINASE [2]: 273.5 u/L
- CREATININE [2]: 0.22 mg/dL
- GLUCOSE [2]: 141.83 mg/dL
- LACTATE DEHYDROGENASE [2]: 153.67 u/L
- LIPASE [2]: 10.33 u/L
- PHOSPHORUS [2]: 11.38 mg/dL
- POTASSIUM [2]: 7.08 MEQ/L
- SODIUM [2]: 142.75 MEQ/L
- TOTAL BILIRUBIN [2]: 0.18 mg/dL
- TOTAL PROTEIN [2]: 6.1 G/DL
- URIC ACID [2]: 1.67 mg/dL
- ABSOLUTE BASOPHIL [3]: 0 CELLS/uL
- ABSOLUTE EOSINOPHIL [3]: 245.33 CELLS/uL
- ABSOLUTE LYMPHOCYTE [3]: 18853.33 CELLS/uL
- ABSOLUTE MONOCYTE [3]: 248 CELLS/uL
- ABSOLUTE SEGMENTED NEUTROPHIL [3]: 1720 CELLS/uL
- BASOPHIL [3]: 0%
- EOSINOPHIL [3]: 1%
- ERYTHROCYTE COUNT [3]: 5.43 x10E6/uL
- HEMATOCRIT [3]: 36.1%
- HEMOGLOBIN [3]: 14.33 G/DL
- LEUKOCYTE COUNT [3]: 21.07 x10E3/uL
- LYMPHOCYTE [3]: 89.33%
- MEAN CORPUSCULAR HEMOGLOBIN [3]: 26.5 pg
- MEAN CORPUSCULAR HEMOGLOBIN CONCENTRATION [3]: 39.7 G/DL
- MEAN CORPUSCULAR VOLUME [3]: 66.67 fL
- MONOCYTE [3]: 1.33%
- NEUTROPHIL [3]: 8.33%
- NUCLEATED RED BLOOD CELLS [3]: 0.67 /100WBC
- PLATELET COUNT [3]: 1207.33 x10E3/uL
- ALANINE AMINOTRANSFERASE [3]: 65.67 u/L
- ALBUMIN [3]: 4.37 G/DL
- ALKALINE PHOSPHATASE [3]: 375 u/L
- ASPARTATE AMINOTRANSFERASE [3]: 96.33 u/L
- BLOOD UREA NITROGEN [3]: 13 mg/dL
- CARBON DIOXIDE [3]: 25.67 mmol/L
- CHLORIDE [3]: 103 MEQ/L
- CHOLESTEROL [3]: 84.33 mg/dL
- CREATINE PHOSPHOKINASE [3]: 380 u/L
- CREATININE [3]: 0.35 mg/dL
- GLUCOSE [3]: 158 mg/dL
- LACTATE DEHYDROGENASE [3]: 212.67 u/L
- LIPASE [3]: 10.67 u/L
- PHOSPHORUS [3]: 12.8 mg/dL
- POTASSIUM [3]: 6.31 MEQ/L
- SODIUM [3]: 145.97 MEQ/L
- TOTAL BILIRUBIN [3]: 0.23 mg/dL
- TOTAL PROTEIN [3]: 6.1 G/DL
- URIC ACID [3]: 1.97 mg/dL
